The values below come from PubChem BioAssay AID1259375 (The Scripps Research Institute Molecular Screening Center, 2018).

Active and inactive are the calls of the source. How the calls were made is not given here.

This assay concerns the target Microphthalmia-associated transcription factor (Homo sapiens) (UniProt O75030). In words: MITF inhibitors by FRET titration, dose response, biochemical, high throughput (AID 1259375).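 Further: FRET between CFP-tagged and YFP-tagged MITF protein partners.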 Conditions: FRET biochemical assay, MITF inhibition.

Sequence of Microphthalmia-associated transcription factor (Homo sapiens) (O75030 whole entry, looked up): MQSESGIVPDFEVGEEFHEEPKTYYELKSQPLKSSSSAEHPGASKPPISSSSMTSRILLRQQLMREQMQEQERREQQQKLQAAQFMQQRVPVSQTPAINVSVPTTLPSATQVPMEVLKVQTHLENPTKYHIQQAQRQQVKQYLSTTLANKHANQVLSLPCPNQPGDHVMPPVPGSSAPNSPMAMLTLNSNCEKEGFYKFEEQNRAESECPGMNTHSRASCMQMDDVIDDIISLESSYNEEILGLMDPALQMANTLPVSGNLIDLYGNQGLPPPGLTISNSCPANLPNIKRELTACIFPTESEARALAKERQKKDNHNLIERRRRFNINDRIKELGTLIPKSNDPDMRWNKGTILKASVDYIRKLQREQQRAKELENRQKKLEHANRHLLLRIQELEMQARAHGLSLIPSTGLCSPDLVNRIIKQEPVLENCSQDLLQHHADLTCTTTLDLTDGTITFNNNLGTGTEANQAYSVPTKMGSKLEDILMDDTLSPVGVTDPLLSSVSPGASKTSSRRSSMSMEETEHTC

Take `O=c1[nH]c(/C=C/c2ccco2)nc(O)c1[N+](=O)[O-]`: the IC50 result was “inactive”.
For `COc1ccc2c(c1)CC(C(=O)Nc1ccc(-c3cn[nH]c3)cc1OCC#N)CO2` (configuration not stated) the value was > 6.48 µM (inactive).
As for `COc1ccc(CN2CCN(Cc3ccccc3OC)CC2)cc1`, the figure is > 7.33 µM (inactive); as for `CCc1ccc(NC(=O)CCc2nc(C3=CCN(C)CC3)no2)cc1`, > 6.48 µM (inactive); as for `COCCCNC(=O)/C(C#N)=C/c1ccc(-c2ccc(Cl)c(C(=O)O)c2)o1`, > 6.48 µM (inactive).
As for `Clc1ccc(CN2CCN(Cc3c[nH]c4ccccc34)CC2)cc1`, the figure is > 5.86 µM (inactive).
As for `Cc1cc(CSC(=N)N)c(O)c(C)n1`, the IC50 is > 6.48 µM (inactive).
For `O=C(/C=C/c1ccco1)ON1C(=O)c2ccccc2C1=O` the value was > 6.48 µM (inactive); for `CN(c1cccc(NS(=O)(=O)c2ccc([N+](=O)[O-])cc2)c1)S(C)(=O)=O`, > 6.48 µM (inactive); for `CC[C@@H]1NC(=O)[C@H]2CN(C(=O)NC3CCCCC3)CCN2C1=O`, > 6.48 µM (inactive).
As for `Cc1ccc(/C(C#N)=C\c2ccco2)cc1`, the figure is > 6.48 µM (inactive); as for `O=C(COC(=O)c1cc(-c2ccco2)nc2ccccc12)NC1CC1`, > 6.94 µM (inactive); as for `CCCCn1c(=O)[nH]c(=O)c2c1nc(-c1ccc([N+](=O)[O-])o1)n2C`, > 7 µM (inactive).
For `O=C1Nc2c(C(=O)O)cccc2C1=O`, the IC50 was > 7.92 µM (inactive).
For `Cc1ccc(/C=C/C(=O)NCc2ccccn2)o1` the value was > 6.48 µM (inactive); for `CN=C1SC(CC(=O)Nc2cccc(C(=O)O)c2)C(=O)N1C` (configuration not stated), > 6.48 µM (inactive).
As for `O=C1N[C@H](Cc2ccc(O)cc2)C(=O)N2CCN(C(=O)NCc3ccccc3)C[C@H]12`, the figure is > 6.48 µM (inactive); as for `COc1cc(OC)c(C(=O)OC2CCCC2=O)cc1OC` (configuration not stated), > 7.05 µM (inactive); as for `CCc1ccc(CN2CCN(C(C)C)CC2)cc1`, > 6.89 µM (inactive).
As for `CC(=O)Oc1ccccc1N1C(=O)c2ccc(Oc3cccc(N)c3)cc2C1=O`, the figure is 2.14 µM; as for `O=C(NNC(=O)c1cc(-c2ccco2)nc2ccccc12)NC1CCCCC1`, > 6.48 µM (inactive).
Take `COc1cccc(COC(=O)Nc2ccc(-c3cn[nH]c3)cc2N(C)CCN(C)C)c1`: the IC50 was > 6.48 µM (inactive).
For `CCOC(=O)C1C2NC(=S)N(c3ccc(CC)cc3)C1(C)Oc1c(OCC)cccc12` (configuration not stated) the value was > 5.53 µM (inactive).
As for `CC1=NN(c2ccc(C(=O)O)c(N)c2)C(=O)C1`, the figure is > 6.48 µM (inactive).
For `O=C(NC1CCN(Cc2ccccc2)CC1)c1ccc2nc(-c3cccs3)sc2c1` the value was > 6.38 µM (inactive).
With `O=C1N[C@@H](Cc2ccc(O)cc2)C(=O)N2CCN(C(=O)NCc3ccccc3)C[C@H]12`, the IC50 is > 6.48 µM (inactive).
As for `CNC(=O)Nc1ccc2nc(-c3ccco3)c(-c3ccco3)nc2c1`, the IC50 is > 6.48 µM (inactive).
For `O=C1N[C@@H](CC2CCCCC2)C(=O)N2CCN(C(=O)Nc3ccccc3)C[C@H]12` the value was > 6.48 µM (inactive); for `CC(O)C(=O)N/N=C/C=C/c1ccc([N+](=O)[O-])o1` (configuration not stated), > 7.17 µM (inactive); for `Cc1cc(NC(=O)C2CCN(C(=O)c3ccc(-n4cccc4)cc3)CC2)no1`, > 6.48 µM (inactive).
Turning to `CC(C)N(C)CCOC(=O)/C=C/c1ccco1`, the IC50 was > 6.48 µM (inactive).
Regarding `O=C(O)c1cccc(-n2cccc2/C=C2/NC(=O)N(c3ccc(Cl)cc3)C2=O)c1`, the IC50 was > 6.48 µM (inactive).
As for `Cc1cc2ncn(Cc3noc(-c4ccco4)n3)c2cc1C`, the figure is > 6.48 µM (inactive); as for `COc1cc(/C=N/N=C2\NC(=O)C(CC(=O)O)S2)ccc1OCc1ccc(C)cc1` (configuration not stated), > 6.48 µM (inactive).
For `CCS(=O)(=O)NCC(c1cccs1)S(=O)(=O)c1ccc(C)cc1` (configuration not stated) the value was > 6.6 µM (inactive).
As for `Oc1ccc(CCNc2cc(-c3cccs3)ncn2)cc1`, the figure is > 6.7 µM (inactive); as for `O=C(Nc1ccc(-c2ccncc2)c(C(F)(F)F)c1)C1COc2ccccc2O1` (configuration not stated), > 6.48 µM (inactive); as for `O=C(O)c1ccc(CS(=O)(=O)c2ccccc2)o1`, > 6.48 µM (inactive).
On to `COc1cc(C=Nc2ccc(N(C)C)cc2)cc(I)c1O`, for which the IC50 was > 6.48 µM (inactive).
For `Cc1noc(C2CN(C(=O)c3ccc(-n4cccc4)cc3)C2)n1` the value was > 6.48 µM (inactive); for `Cc1ccc(NC(=O)COC(=O)CCC(=O)Nc2sc3c(c2C(N)=O)CCC3)cc1F`, > 6.95 µM (inactive).
As for `Cc1sc2nc(C)n3c(=O)n(CC(=O)NCc4ccco4)nc3c2c1C`, the figure is > 6.48 µM (inactive); as for `COC(=O)CSc1nnc(-c2cnccn2)n1C`, > 6.48 µM (inactive).
On to `O=C(O)c1cc(S(=O)(=O)Nc2ccc(-n3cnnn3)cc2)ccc1O`, for which the IC50 was > 7.18 µM (inactive).
As for `CCN1CCN(Cc2coc3ccccc3c2=O)CC1`, the figure is > 6.48 µM (inactive); as for `O=C(COC(=O)/C=C/c1ccco1)NCc1ccco1`, > 6.6 µM (inactive).
As for `Oc1ccc2c(c1)C1CCCC1(N1CCOCC1)O2` (configuration not stated), the figure is > 6.48 µM (inactive); as for `Cc1cccc(CN2CCN(S(=O)(=O)c3ccccc3[N+](=O)[O-])CC2)c1`, > 5.08 µM (inactive); as for `CCOC(=O)c1cc(N2C(=O)C3C4C=CC(C4)C3C2=O)ccc1Cl` (configuration not stated), > 6.48 µM (inactive).
As for `NC(=O)NC(=O)COC(=O)c1c2c(nc3ccccc13)/C(=C\c1ccco1)CCC2`, the figure is > 7.04 µM (inactive); as for `CC[C@@H]1NC(=O)[C@H]2CN(C(=O)NCc3ccccc3)CCN2C1=O`, > 6.48 µM (inactive); as for `O=C(NC1CCCCC1)N1CCN2C(=O)[C@H]3CCCN3C(=O)[C@H]2C1`, > 6.48 µM (inactive).
Turning to `COc1nccnc1NS(=O)(=O)c1ccc(NC(=O)c2ccc([N+](=O)[O-])c(C)c2)cc1`, the IC50 is > 6.48 µM (inactive).
Consider `O=C(OC1CCCC1=O)c1ccc(S(=O)(=O)N2CCCCC2)cc1` (configuration not stated), for which the IC50 is > 6.64 µM (inactive).
As for `NC(=O)c1ccc(-c2cccs2)s1`, the figure is > 7.32 µM (inactive); as for `CC(C)NC(=O)/C(C#N)=C/c1ccc(-c2ccc([N+](=O)[O-])cc2Br)o1`, > 7.06 µM (inactive); as for `Cc1ccc(C)n1C(Cc1c[nH]c2ccccc12)C(=O)O` (configuration not stated), > 6.48 µM (inactive).
As to `CCN(CC)CC(=O)Nc1ccc(OC)cc1`, the IC50 is > 6.48 µM (inactive).
Turning to `Cc1cc(C)n2nc(N)c(N)c2n1`, the IC50 is > 11.6 µM (inactive).
For `O=C1N[C@@H](Cc2ccc(Cl)cc2)C(=O)N2CCN(C(=O)NCc3ccccc3)C[C@H]12` the value was > 6.48 µM (inactive); for `N#CC(C#N)=C(N)/C(C#N)=C/c1ccc([N+](=O)[O-])o1`, 4.85 µM.
As to `CC(=O)NC1=NC(=O)/C(=C\c2ccc(Br)o2)S1`, the IC50 was > 6.48 µM (inactive).
For `COc1ccccc1C1(NC(=O)CCCCC2SCC3NC(=O)NC32)CCCC1` (configuration not stated) the value was > 6.48 µM (inactive); for `CCCCCCCCCCCCCCCC(=O)OC[C@H](O)[C@H]1OC(=O)C(=O)C1O` (some centres not stated), > 6.48 µM (inactive); for `CCN(C(=O)C1COc2ccccc2O1)C12CC3CC(CC(C3)C1)C2` (configuration not stated), > 6.83 µM (inactive).
For the compound `COCCCNC(=O)/C(C#N)=C/c1ccc(-c2ccc(C(=O)O)c(Cl)c2)o1`, the IC50 is > 6.48 µM (inactive).
For `C/C(=N\Nc1ccc(S(=O)(=O)O)cc1)c1ccc([N+](=O)[O-])o1` the value was > 6.48 µM (inactive).
As for `Cc1ccc(N2C(=O)C3C(C2=O)C2(CO)C=CC3(C)O2)cc1[N+](=O)[O-]` (configuration not stated), the figure is > 6.48 µM (inactive); as for `CC(=O)Nc1ccc(N2C(=O)c3ccccc3C2(O)Cc2ccccc2)cc1` (configuration not stated), > 6.48 µM (inactive).
As for `O=C(OC1(C(F)(F)F)C(=O)Nc2cc3c(cc21)OCO3)c1ccc(Cl)nc1` (configuration not stated), the figure is 3.84 µM; as for `CN1C(=O)[C@H]2CN(C(=O)NCc3ccccc3)CCN2C(=O)[C@@H]1Cc1ccccc1`, > 6.48 µM (inactive); as for `O=C(NC1CCCCC1)N1CCN2C(=O)[C@@H]3CSCN3C(=O)[C@H]2C1`, > 6.48 µM (inactive).
For `O=C(OCN1C(=O)c2ccccc2C1=O)c1cc2c(s1)CCC2`, the IC50 is > 7.13 µM (inactive).
For `O=[N+]([O-])c1ccc(N/N=C/c2ccco2)c(S(=O)(=O)N2CCOCC2)c1` the value was > 6.48 µM (inactive); for `O=S(=O)(O)c1ccc(N/N=C2\CCc3ccccc32)cc1`, > 6.48 µM (inactive); for `N#Cc1cc([N+](=O)[O-])ccc1NC(=O)COC(=O)c1cc(-c2ccco2)nc2ccccc12`, > 7.03 µM (inactive).
As for `CCC(C)NCCOc1cccc(Br)c1` (configuration not stated), the figure is > 6.48 µM (inactive); as for `COc1ccc(CCNC(=O)CN2CCN(Cc3nc(-c4ccco4)cs3)CC2)cc1OC`, > 6.48 µM (inactive).
As for `NC(=O)/C(=C\c1cccc([N+](=O)[O-])c1)NC(=O)c1ccc(Br)cc1`, the figure is > 6.48 µM (inactive).
Consider `c1ccc(COc2ccc(OCCCCn3ccnc3)cc2)cc1`, for which the IC50 was > 6.48 µM (inactive).
As for `N/C(=N\[N+](=O)[O-])N/N=C\c1ccc(-c2ccc(O)c(C(=O)O)c2)o1`, the figure is 4.95 µM; as for `O=C(O)CSc1cc(Cl)c2nonc2c1[N+](=O)[O-]`, 4.2 µM; as for `O=C(O)c1c2c(nc3ccc(S(=O)(=O)N4CCC(C(=O)O)CC4)cc13)CCC2`, > 6.48 µM (inactive).
For `CCN1CCc2c(sc(NC(=S)NC(=O)/C=C/c3ccco3)c2C(N)=O)C1` the value was > 6.48 µM (inactive); for `Cc1cc2c(c(=O)[nH]1)C(=O)O/C2=C\c1ccco1`, “inactive”.
`COc1ccc(CC2NCCc3cc(OC)c(OC)cc32)cc1OC` (configuration not stated): the IC50 is 0.925 µM.
As for `CC(C)(C)c1ccc(OCCn2cncn2)c(Cl)c1`, the figure is > 6.48 µM (inactive).

Broadly, the IC50 is the point on the concentration scale where inhibition reaches its midpoint.
